# Publication PMC3560935 (Anesthesiology, 2011)
# “Also recorded” adds a separate entry of the source.
# Tests used:
# Swiss-Webster mice [1] = details: mouse, in vivo
# Swiss-Webster mice [2] = details: mouse, in vivo; remark: listed apart in the source
# Swiss-Webster mice [3] = details: mouse, in vivo; remark: listed apart in the source
# [4] = target: human nociceptin receptor (Homo sapiens, UniProt P41146); assay type: binding
# [5] = mouse, in vivo
# [6] = administered intracerebroventricularly; cited from earlier work
# human nociceptin receptor, sequence (P41146 whole entry): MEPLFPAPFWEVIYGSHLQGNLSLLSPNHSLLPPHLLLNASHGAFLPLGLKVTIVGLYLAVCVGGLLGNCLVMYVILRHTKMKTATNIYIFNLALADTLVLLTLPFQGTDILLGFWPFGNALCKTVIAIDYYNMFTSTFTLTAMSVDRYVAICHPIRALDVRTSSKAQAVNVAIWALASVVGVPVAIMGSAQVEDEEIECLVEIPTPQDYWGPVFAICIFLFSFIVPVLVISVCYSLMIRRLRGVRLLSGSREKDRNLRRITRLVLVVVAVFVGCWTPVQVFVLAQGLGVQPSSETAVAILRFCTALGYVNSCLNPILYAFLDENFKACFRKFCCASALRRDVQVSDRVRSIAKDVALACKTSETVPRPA
compound,measurement,setting,value
"CO[C@]12CC[C@@]3(C[C@@H]1[C@](C)(O)C(C)(C)C)[C@H]1Cc4ccc(O[C@@H]5O[C@H](C(=O)O)[C@@H](O)[C@H](O)[C@H]5O)c5c4[C@@]3(CCN1CC1CC1)[C@H]2O5 [Buprenorphine-3-glucuronide, buprenorphine-3-glucuronide]",effect on minute ventilation (in words),Swiss-Webster mice [1],Neither buprenorphine nor B3G affected
same,effect on respiratory rate (in words),Swiss-Webster mice [1],Neither B3G nor N3G had a significant effect
same,total locomotor activity compared to control / sedation (in words),Swiss-Webster mice [2],did not cause a decrease
same,antinociceptive effect (in words),Swiss-Webster mice [3],small antinociceptive effect; also recorded: mild antinociceptive activity
same,Ki,"[4]; read-out: apparent Ki, Nociceptin",36 ± 0.3 µM
same,"Concentration, Brain Homogenate",[5],1.4 ± 0.7 ng/mL
same,"Concentration, Plasma",[5],133 ± 44 ng/mL
CN1CC[C@]23c4c5ccc(O)c4O[C@H]2[C@@H](O[C@@H]2O[C@H](C(=O)O)[C@@H](O)[C@H](O)[C@H]2O)C=C[C@H]3[C@H]1C5 [Morphine-6-glucuronide],potency relative to morphine,[6],300 times
Buprenorphine,dose with the greatest analgesic response,Swiss-Webster mice [3],0.3 mg/kg
same,time to onset of antinociception,Swiss-Webster mice [3],30 min
same,time to peak antinociceptive effect,Swiss-Webster mice [3],45 min
same,affinity for the nociceptin receptor (in words),[4],low affinity
